Reference: patent US20260034153A1, “Cerebral Blood Flow Augmenter, Brain Activity Promoter, and Vigilance Improver” (Mitsui DM Sugar Co., Ltd., priority 2022, published 2026)

Key:
[1] = fraction of the hydrolysis rate of sucrose; cited from earlier work
healthy men and women [2] = experiment: Digit vigilance task (DVT) response time after intake of test food, crossover test; type: in vivo, human; conditions: 10.0 g in 100 mL water taken orally before 2nd DVT; 5 DVTs, one per hour; 64 subjects; FIG. 1
Protocol: As the subjects, 64 healthy men and women of 20 to 60 years old were employed. The effects of intake of isomaltulose on cerebral blood flow and brain activity were evaluated based on measurement of the response time to a cognitive task (Digit vigilance task (DVT)) and change of the cerebral blood flow in accordance with the following test. Test methods are more specifically shown below. In the test, each block including the steps shown in Table 1 was performed in one hour, and the 1st block to the 5th block were continuously performed on the same day. […] Before the start of the 2nd DVT, an aqueous solution prepared by dissolving 10.0 g of isomaltulose in 100 mL of water was given as a test food. After the completion of DVT and before the next DVT, the Uchida Kraepelin test was performed. The Uchida Kraepelin test is a test of adjacent single-digit addition. In this Example, the test was performed in order to apply a load such as fatigue to the subject in order to control the break time. DVT is a task mainly used for measuring the vigilance (Non Patent Literature 1 (Joel S. Warm et al., Vigilance requires hard mental work and is stressful, Human Factors, Vol. 50 (3), pp. 433-41, 2008)). […] The time from display of the number or character to the subject's response is measured. […]

healthy men and women [3] = experiment: Subjective questionnaire survey (VAS method) after the task; type: in vivo, human; conditions: questionnaire at 3rd to 5th block; compared to glucose control group
Protocol: As the subjects, 64 healthy men and women of 20 to 60 years old were employed. The effects of intake of isomaltulose on cerebral blood flow and brain activity were evaluated based on measurement of the response time to a cognitive task (Digit vigilance task (DVT)) and change of the cerebral blood flow in accordance with the following test. Test methods are more specifically shown below. In the test, each block including the steps shown in Table 1 was performed in one hour, and the 1st block to the 5th block were continuously performed on the same day. […] Before the start of the 2nd DVT, an aqueous solution prepared by dissolving 10.0 g of isomaltulose in 100 mL of water was given as a test food. After the completion of DVT and before the next DVT, the Uchida Kraepelin test was performed. The Uchida Kraepelin test is a test of adjacent single-digit addition. In this Example, the test was performed in order to apply a load such as fatigue to the subject in order to control the break time. First, “Last night, did you sleep better than usual?” was asked. After DVT or Uchida Kraepelin test, the survey for asking subjectivity of the subjects was conducted as to “How are you feeling right now?”, “Are you feeling tired right now?”, “Are you feeling irritated right now?”, “Are you feeling sleepy right now?”, and “Did you work diligently on the task until the end?”. […]

healthy men and women [4] = experiment: Change in cerebral blood flow in the dorsal lateral prefrontal area during DVT, measured by fNIRS (HOT-2000); type: in vivo, human; conditions: throughout 5 DVTs, compared to glucose intake group, FIGS. 2 and 3
Protocol: The subjects mentioned above were instructed to take a test diet containing glucose instead of isomaltulose on another day and the same test was performed (crossover test). They constituted a control group.
Using a brain activity measuring apparatus (HOT-2000, manufactured by NeU Corporation) based on fNIRS (near-Infrared spectroscopy), a change in cerebral blood flow in the dorsal lateral prefrontal area was measured during DVT. According to this apparatus, a change in hemoglobin concentration in blood can be detected by irradiation with near-infrared light, with the result that a change in cerebral blood flow in an active area of the brain can be measured.

O=C(CO)[C@@H](O)[C@H](O)[C@H](O)CO[C@H]1O[C@H](CO)[C@@H](O)[C@H](O)[C@H]1O [isomaltulose, 6-O-α-D-glucopyranosyl-D-fructose]
hydrolysis rate relative to sucrose [1]: ⅕
response time in DVT (change of average response time relative to 1st DVT) (healthy men and women [2]): less likely to increase
answer to question "have you dealt with the task diligently to the end?" (healthy men and women [3]): dealt with the task diligently
change in cerebral blood flow during DVT (average 0 to 120 seconds) (healthy men and women [4]): significantly large
